Source: patent publication US9655965B2, “Radiosensitizer compounds for use in combination with radiation” (priority 2013, dated 2017)
“Also recorded” adds a separate entry of the source.

Key:
[1] = system: plasmid DNA [pGEM 3Zf(−)]; assay: Agarose gel electrophoresis of ionizing-radiation-induced damage to plasmid DNA; format: biochemical, Escherichia Coli JM 109; details: 200 μM compound; two-UV-photon ionizing radiation of water; versus pure water
From the text: Ultrapure water for life science with a resistivity of >18.2 MΩ/cm and TOC<1 ppm obtained freshly from a Barnstead Nanopure water system was used. Dibromo-diamino-benzene (Dibromo-phenylenediamine, Compound B) was obtained from TCI-America, while other chemicals and buffer compositions were obtained from Sigma-Aldrich. Plasmid DNA [pGEM 3Zf(−), […]] was extracted from Escherichia Coli JM 109 and purified using QIAprep Kit (Qiagen).
The pump beam at 322 nm, identical to that for fs-TRLS measurements, was used to produce radicals via two-photon excitation of water in DNA solutions. The laser beam was focused into a quartz cell containing 3.0 μg of DNA in 200 μL of buffer solutions. The solutions were stirred during irradiation to produce uniform DNA damage throughout the samples. Aliquots equivalent to 96 ng DNA were removed from the sample cell in various irradiation times for gel electrophoresis. All aliquots were analyzed with a standard agarose gel electrophoresis method, namely, on 1% neutral TAE agarose gel in TAE running buffer. The gel was prestained with 0.5 μg/ml ethidium bromide. […] They were quantified with an AlphaEase FC software.

[2] = system: human cervical cancer (ME-180) xenograft; assay: Xenograft mouse tumor model of human cervical cancer (ME-180) in female SCID mice; format: in vivo
Description: The four groups in the experiment were: (1) control article (5% EtOH/medium); (2) 15 Gy X-ray irradiation; (3) Compound B at 7 mg/kg in 5% EtOH/medium and (4) Compound B at 7 mg/kg in 5% EtOH/medium plus 15 Gy X-ray irradiation, as shown in Table 2.
ME-180 (human cervical cancer) cells were cultured in the ATCC-formulated McCoy's 5 A Medium supplemented with 10% FBS. The cells in a flask were maintained at 37° C. in a humidified atmosphere containing 5% CO2. The cells were rinsed with PBS, trypsined for detachment from the bottom of the flask, mixed with fresh growth medium, and centrifuged to remove the supernatant. The cells were re-suspend with fresh medium to appropriate concentration for inoculation. Injection volume was 50 μl (1×10^6 cells) per animal.
ME-180 tumour cells were implanted subcutaneously into female SCID mice (age 6-8 weeks) in a volume of 50 μL into the left gastrocneumius muscle using a 27-gauge needle. This was established as a subcutaneous (SC) xenograft mouse model of human cervical cancer.
Mice were individually weighed and injected intraperitoneally according to body weight for an injection concentration as outlined in the study group table above. The injection volume was based on 200 μL per 20 g mouse. The skin surface was wiped down with 70% isopropyl alcohol to clean the injection site. Radiation was given using X-rad 225 targeted irradiator to the tumors.
Tumor size was measured as a function of time to assess tumor growth delay associated with treatment using slide caliper and […]. Animals were also weighed at the time of tumour measurement. Tumours in mice were allowed to grow to a maximum of 1000 mm^3 before termination.

With `Nc1cc(Br)c(Br)cc1N` [Compound B, 4,5-dibromo-1,2-phenylenediamine] the “radiation-induced DNA double-strand breaks (DSBs)” value [1] was “significantly enhanced; also recorded: significant enhancement of DSBs”, the “suppression of tumor growth” value ([2]; 7 mg/kg IP 1 hr prior to 15 Gy 225 keV x-ray, versus radiation or compound only) was “significantly enhanced the suppression of tumor growth” and the tumor growth delay ([2]; 7 mg/kg plus 15 Gy x-ray, single doses) was “very significant tumor growth delay in vivo till 21 days”. The “shrinkage of the tumor” value ([2]; 7 mg/kg plus 15 Gy x-ray, tumor volumes and MRI, Day 21) was “significant shrinkage of the tumor in mice; also recorded: most significant shrinkage of the tumor in mice”.
